Test results: patent US6495523B1, “Tricyclic monosaccharide derivatives useful in treating acute ischemia-induced neurodegeneration” (Ortho McNeil-Pharmaceutical, Inc., priority 1999, dated 2002)

What was measured:
[1] = system: Male Long-Evans rats; assay: Neurologic assessment in rat cardiac arrest (global ischemia) model; assay type: in vivo; conditions: conditions of Table 1
Protocol: Male Long-Evans rats (250 g) were obtained from Charles River Laboratories, Portage, Mich. The neurologic function and seizure susceptibility of each animal was tested according to the methods described below. The rats were housed in the experimental laboratory for at least 24 h prior to study to avoid transit stress and to ensure a 24-h fasting period. Only rats with blood glucose levels of 100 mg/dL or less at the end of fasting were used in the experiments.
General anesthesia was induced with ketamine (100 mg/kg, ip) and maintained with small fractional supplements as needed. Tracheal intubation was performed using a custom-made fiberoptic rodent laryngoscope and a 14-gauge polyethylene catheter. Needle electrodes were inserted in the scalp and thorax to monitor the EEG and ECG, respectively, while blood pressure was measured via an indwelling femoral arterial cannula. Body and brain temperatures were monitored by thermistors placed in the rectum and temporalis muscle, respectively. […]
Neurologic assessment was identical to that described for the use with this model by Wauquier et al. (Neuropharmacology 1989; 28(8):837-846). […] In addition to the neurodeficit score, the angle of inclination at which the rat could no longer cling to the inclined plane was determined. Performance was quantified as percent of preinsult baseline.

[2] = system: human epilepsy; conditions: adjunctive therapy or monotherapy; clinical trials; cited from earlier work

With `CC1(C)O[C@H]2[C@@H]3OS(=O)(=O)O[C@@H]3CO[C@@]2(COS(N)(=O)=O)O1` [RWJ-37947] as the compound, how does the “detrimental effect on exploratory behavior (effect in words)” value [1] read?
The value was “significantly reduced”.

And the “ischemia-induced neurological deficit (effect in words)” value [1]?
The value was “significantly reduced”.

For `CC1(C)O[C@@H]2[C@@H](CO[C@@]3(COS(N)(=O)=O)OC(C)(C)O[C@@H]23)O1` [topiramate, 2,3:4,5-bis-O-(1-methylethylidene)-β-D-fructopyranose sulfamate], which “efficacy in treating simple and complex partial seizures and secondarily generalized seizures” value [2] is on record?
The value was “effective”.
